These results are taken from ChEMBL document CHEMBL1201862, “PubChem BioAssay data set” (2004).

SMILES strings stand for the structures. The source made the active and inactive calls.

Among the targets are Cytochrome P450 2C9 (Homo sapiens, UniProt P11712); Cytochrome P450 2D6 (Homo sapiens, UniProt P10635); Cytochrome P450 3A4 (Homo sapiens, UniProt P08684).
The target of a further assay is T1, Cytochrome P450 1A2 (Homo sapiens, UniProt P05177).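 Note: PubChem cytochrome P450 panel assay, CYP1A2 panel member.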
T1 sequence (P05177 whole entry): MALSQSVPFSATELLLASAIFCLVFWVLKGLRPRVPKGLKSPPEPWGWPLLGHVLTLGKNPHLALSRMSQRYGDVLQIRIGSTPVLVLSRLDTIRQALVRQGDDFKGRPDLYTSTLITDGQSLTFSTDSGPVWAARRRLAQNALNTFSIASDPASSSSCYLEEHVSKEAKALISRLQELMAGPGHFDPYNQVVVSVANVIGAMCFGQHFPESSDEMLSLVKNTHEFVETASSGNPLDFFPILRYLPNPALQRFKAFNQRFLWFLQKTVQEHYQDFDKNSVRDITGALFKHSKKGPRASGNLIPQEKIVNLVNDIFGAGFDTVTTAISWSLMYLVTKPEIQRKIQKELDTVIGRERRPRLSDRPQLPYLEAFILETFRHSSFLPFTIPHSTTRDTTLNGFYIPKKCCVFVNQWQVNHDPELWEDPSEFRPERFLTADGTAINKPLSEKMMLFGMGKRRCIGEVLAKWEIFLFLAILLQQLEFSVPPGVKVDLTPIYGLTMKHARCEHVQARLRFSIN

Assay [1] in a line: luciferase reporter signal suppression in cells – H4 neuroglioma cells, luminescence, dose response (AID 1990). The class given is functional, cell-based.
A short description of assay [2]: alpha-synuclein stem-loop luciferase translation blockers – H4 neuroglioma cells, luminescence, confirmation (AID 1988). In kind it is functional, cell-based.
Assay [3] is described as follows: Luminescence Cell-Based Dose Response HTS to Identify Inhibitors of 5'UTR Stem-Loop Driven Prion Protein mRNA Translation in H4 Neuroglioblastoma Cells. [Related pubchem assays: 1827 (Project Summary), 1813 (Primary HTS)]. In kind it is functional.
Another assay deals with H9c2. Description: cells. The class given is functional, cell-based. To be noted: Rattus norvegicus, H9c2, Myocardium.
Assay [4] can be described thus: viability of uninfected HEp-2 cells – cell-based, HTS, cytotoxicity control for RSV inhibitor project, dose response (AID 2410). In kind it is functional. Conditions: human respiratory syncytial virus.
Assay [5] has as its target T2, Corticotropin-releasing factor receptor 2/Corticotropin-releasing factor-binding protein (Homo sapiens, UniProt P24387+Q13324).
T2 sequence (Q13324 whole entry): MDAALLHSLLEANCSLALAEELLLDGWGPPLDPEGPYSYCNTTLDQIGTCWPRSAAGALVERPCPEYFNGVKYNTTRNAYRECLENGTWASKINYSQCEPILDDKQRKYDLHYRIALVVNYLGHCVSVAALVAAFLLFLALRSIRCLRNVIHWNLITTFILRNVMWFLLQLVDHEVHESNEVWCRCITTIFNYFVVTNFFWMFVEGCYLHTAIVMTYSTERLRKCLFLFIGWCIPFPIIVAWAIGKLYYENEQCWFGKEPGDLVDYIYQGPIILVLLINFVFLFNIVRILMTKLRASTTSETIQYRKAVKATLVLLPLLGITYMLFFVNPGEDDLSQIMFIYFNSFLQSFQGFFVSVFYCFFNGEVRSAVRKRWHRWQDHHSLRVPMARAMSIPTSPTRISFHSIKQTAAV
T2 sequence (P24387 whole entry): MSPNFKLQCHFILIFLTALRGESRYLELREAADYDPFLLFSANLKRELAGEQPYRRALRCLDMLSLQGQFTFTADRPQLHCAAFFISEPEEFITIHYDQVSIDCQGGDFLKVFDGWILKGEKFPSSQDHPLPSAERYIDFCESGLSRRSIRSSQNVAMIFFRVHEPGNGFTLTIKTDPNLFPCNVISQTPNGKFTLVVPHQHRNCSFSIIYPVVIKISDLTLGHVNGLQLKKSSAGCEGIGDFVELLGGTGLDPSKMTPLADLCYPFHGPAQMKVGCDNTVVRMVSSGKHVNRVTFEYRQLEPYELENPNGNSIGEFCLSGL
In words: activators of CRF receptor 2 with binding protein – uHTS hits, confirmation (AID 602473). In kind it is functional. To be noted: read-out: EC50_Mean.

The nature of assay [6]: Trypanosoma cruzi growth suppression in host cells – NIH3T3 host cells, beta-gal luminescence, confirmation (AID 2044).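 Note: intracellular parasites grown in NIH/3T3 mouse fibroblasts as host cells; luminescent beta-galactosidase reporter signal from transgenic T. cruzi replicating inside host cells; inhibitors lower the luminescence signal.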 The class given is functional, cell-based.
Assay [7] in a line: NIH3T3 cell viability loss – ATP luminescence, mouse fibroblasts, counter-screen, dose response (AID 2010).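 Note: cells exposed to compound for about 90 hours before reading.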 In kind it is functional, cell-based.
The target of a further assay is Cytochrome P450 2C19 (Homo sapiens, UniProt P33261). In words: Cytochrome panel assay with activity outcomes. Panel member name: p450-cyp2c19 Compounds with AC50 equal or less than 10 uM are considered active. The class given is functional. To be noted: read-out: AC50.
The target of assay [8] is FAD-linked sulfhydryl oxidase ALR (Homo sapiens, UniProt P55789). In words: ALR-catalysed DTT oxidation blockers – biochemical, H2O2 detection, luminescence, cherry-pick, dose response (AID 493248).
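Throughout, for IC50: confirmatory concentration-response retest of ultra-high-throughput screening hits for modulation of myocardial damage; cell death induced by hydrogen peroxide oxidative stress; compound pretreatment for 60 min then peroxide exposure for 2 h; potency is for protecting the cells against peroxide damage rather than for killing them.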

Cytochrome P450 2C9, sequence (P11712 whole entry): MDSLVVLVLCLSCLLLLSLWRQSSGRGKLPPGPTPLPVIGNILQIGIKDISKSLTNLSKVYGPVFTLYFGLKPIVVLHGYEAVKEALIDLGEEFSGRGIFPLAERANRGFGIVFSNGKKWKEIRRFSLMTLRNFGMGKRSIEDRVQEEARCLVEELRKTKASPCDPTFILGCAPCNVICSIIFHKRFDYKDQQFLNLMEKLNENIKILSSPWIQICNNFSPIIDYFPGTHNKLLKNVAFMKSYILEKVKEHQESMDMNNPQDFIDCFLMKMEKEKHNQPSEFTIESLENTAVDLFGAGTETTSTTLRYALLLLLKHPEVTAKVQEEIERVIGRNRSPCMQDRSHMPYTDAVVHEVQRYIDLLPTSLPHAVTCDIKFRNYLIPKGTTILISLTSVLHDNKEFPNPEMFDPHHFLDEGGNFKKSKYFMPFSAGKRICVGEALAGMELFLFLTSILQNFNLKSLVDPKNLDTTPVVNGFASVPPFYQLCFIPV
Cytochrome P450 2C19, sequence (P33261 whole entry): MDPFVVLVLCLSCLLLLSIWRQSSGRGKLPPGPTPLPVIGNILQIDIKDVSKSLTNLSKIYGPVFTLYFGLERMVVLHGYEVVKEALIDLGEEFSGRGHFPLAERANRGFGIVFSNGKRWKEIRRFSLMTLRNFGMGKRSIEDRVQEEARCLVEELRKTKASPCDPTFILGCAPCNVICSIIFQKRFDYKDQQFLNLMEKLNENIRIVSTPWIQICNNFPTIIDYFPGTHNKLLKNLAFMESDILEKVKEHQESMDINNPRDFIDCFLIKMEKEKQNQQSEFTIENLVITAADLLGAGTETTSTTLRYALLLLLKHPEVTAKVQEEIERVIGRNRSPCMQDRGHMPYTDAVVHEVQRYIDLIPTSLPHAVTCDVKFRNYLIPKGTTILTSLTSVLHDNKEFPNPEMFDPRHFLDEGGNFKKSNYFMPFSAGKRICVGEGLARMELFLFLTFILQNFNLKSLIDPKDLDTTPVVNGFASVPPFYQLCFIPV
Cytochrome P450 2D6, sequence (P10635 whole entry): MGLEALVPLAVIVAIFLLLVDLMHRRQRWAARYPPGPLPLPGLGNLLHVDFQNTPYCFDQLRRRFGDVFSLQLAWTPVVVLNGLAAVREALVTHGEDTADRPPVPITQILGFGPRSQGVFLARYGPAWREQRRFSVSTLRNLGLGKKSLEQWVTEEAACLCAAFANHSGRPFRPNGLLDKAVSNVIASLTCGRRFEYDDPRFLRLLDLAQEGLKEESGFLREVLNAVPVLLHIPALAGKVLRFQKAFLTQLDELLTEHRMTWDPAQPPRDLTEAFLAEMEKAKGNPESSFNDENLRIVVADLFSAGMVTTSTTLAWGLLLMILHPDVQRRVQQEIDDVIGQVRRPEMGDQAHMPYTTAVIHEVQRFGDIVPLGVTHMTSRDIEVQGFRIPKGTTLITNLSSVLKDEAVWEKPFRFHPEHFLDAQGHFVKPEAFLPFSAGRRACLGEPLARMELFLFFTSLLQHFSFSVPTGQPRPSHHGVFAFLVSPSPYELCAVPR
FAD-linked sulfhydryl oxidase ALR, sequence (P55789 whole entry): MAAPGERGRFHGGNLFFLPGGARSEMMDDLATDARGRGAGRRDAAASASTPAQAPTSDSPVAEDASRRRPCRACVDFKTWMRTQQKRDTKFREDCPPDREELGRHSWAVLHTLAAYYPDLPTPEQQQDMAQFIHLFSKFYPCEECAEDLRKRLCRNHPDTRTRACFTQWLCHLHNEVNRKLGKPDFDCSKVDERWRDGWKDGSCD
Cytochrome P450 3A4, sequence (P08684 whole entry): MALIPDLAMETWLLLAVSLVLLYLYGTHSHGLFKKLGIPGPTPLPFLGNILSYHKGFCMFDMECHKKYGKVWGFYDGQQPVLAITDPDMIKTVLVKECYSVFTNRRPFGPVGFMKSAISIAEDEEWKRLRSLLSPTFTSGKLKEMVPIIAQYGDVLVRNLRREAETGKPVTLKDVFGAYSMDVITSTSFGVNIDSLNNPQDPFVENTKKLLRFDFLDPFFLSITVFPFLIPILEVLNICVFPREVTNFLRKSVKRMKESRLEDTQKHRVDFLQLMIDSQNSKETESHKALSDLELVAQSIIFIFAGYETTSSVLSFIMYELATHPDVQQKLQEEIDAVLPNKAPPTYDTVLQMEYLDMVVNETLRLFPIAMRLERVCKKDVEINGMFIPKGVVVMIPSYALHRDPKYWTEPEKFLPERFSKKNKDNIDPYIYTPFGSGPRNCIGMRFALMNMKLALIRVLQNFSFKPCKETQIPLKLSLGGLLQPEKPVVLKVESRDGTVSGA

On to `CCN(CC)C(=O)c1ccc(O)c(OC)c1`, for which, on Cytochrome P450 1A2, the concentration at half-maximal activity (AC50) is 12.6 µM (inconclusive). In the case of `O=S(=O)(c1ccc(Br)cc1)N1CCC(c2nc3ccccc3[nH]2)CC1`, the EC50 in assay [1] was 11.9 µM (active); in [2] it was > 120 µM (not active). `COc1ccc(CCNS(=O)(=O)c2cn(C)cn2)cc1OC`: the EC50 in assay [1], in assay [3] and in [2] was > 120 µM (not active) throughout. For `Cc1nnc(NC(=O)c2cccc(NC(=O)C(C)C)c2)s1`, the AC50 on Cytochrome P450 1A2 is 39.8 µM (inconclusive); on Cytochrome P450 2C9 it was 25.1 µM (inconclusive). Take `CC(C)(C)OC(=O)CNC(=O)c1[nH]cnc1C(=O)NC(c1ccccc1)c1ccccc1`: the IC50 in the assay on H9c2 is > 79 µM (inactive). Take `CCN(CC)C(=O)CSc1nc(O)c2ccccc2n1`: the IC50 with H9c2 is > 79 µM (inactive). Take `COc1cc(/C=C/c2n[nH]c(-c3ccccc3O)n2)cc(OC)c1OC`: the IC50 with H9c2 was > 79 µM (inactive). For `CN(C(=O)COC(=O)c1c2c(nc3ccccc13)/C(=C/c1cccc([N+](=O)[O-])c1)CCC2)C1CCS(=O)(=O)C1` (stereo not given), the results for the EC50 in assay [1], in [3] and in [2] were 11.6 µM (active), > 120 µM (not active) and 11 µM (active), respectively.

Turning to `CCC1Nc2ncnc(N3CCN(c4ccccc4)CC3)c2N(Cc2ccc(Cl)cc2)C1=O` (stereo not given), the CC50 in [4] is 16.6 µM (active).

In the case of `COc1ccc2cc3cc(C(=O)Nc4cc(OC)c(OC)c(OC)c4)oc3nc2c1`, in the assay with H9c2, the IC50 was > 79 µM (inactive). For the compound `COc1ccc(-c2c(-c3ccsc3)oc(=O)c3cc(OC)c(OC)cc23)cc1`, the cytotoxic concentration (CC50) in assay [4] is 47.2 µM (active). With `O=c1ccc(NS(=O)(=O)c2ccc(Cl)cc2)cn1Cc1ccc(Cl)c(Cl)c1`, the AC50 at Cytochrome P450 1A2 is 28.2 µM (inconclusive). Consider `Cc1cccc(C(=O)O)c1C[C@H]1NCC[C@H]2c3ccccc3N[C@@H]12`, for which the AC50 at Cytochrome P450 1A2 is 0.0631 µM (inconclusive). Turning to `CN(C)Cc1ccccc1Sc1ccc2c(c1)CCCC2`, the EC50 is > 120 µM (not active) in [1], 32.4 µM (active) in assay [3] and > 120 µM (not active) in assay [2].

Consider `Brc1ccccc1OCCCOc1cccc2cccnc12`, for which, in assay [4], the CC50 was 26.3 µM (active). `CCOc1ccc(C2C=C(c3ccc(C)cc3)Nc3nnnn32)cc1` (stereo not given): in [5], the EC50 was > 53 µM (inactive). Take `Cc1cccc(N2CCN(C(=O)CCCn3c(=S)[nH]c4cc5c(cc4c3=O)OCO5)CC2)c1C`: the CC50 in assay [4] is 23.4 µM (active). Further, the EC50 in assay [6] is 0.389 µM (active); in assay [7] it was > 30 µM (not active). At Cytochrome P450 2D6, the AC50 was 10 µM (inconclusive). In the case of `CCNc1ncc2nc(-c3ccccc3)c(=O)n(CCc3ccccc3)c2n1`, the values for the half-maximal activity concentration (AC50) on Cytochrome P450 1A2, on Cytochrome P450 3A4 and on Cytochrome P450 2C9 were 12.6 µM (inconclusive), 15.8 µM (inconclusive) and 1.26 µM (inconclusive), respectively. `CC1(c2ccccc2)NC(=O)N(CC(=O)Nc2cccc(/C=C/c3ccccn3)c2)C1=O` (stereo not given): the IC50 with H9c2 was > 79 µM (inactive). Turning to `COC(=O)[C@@]1(Cc2ccc(F)cc2)[C@H]2c3cc(C(=O)N(C)C)n(C)c3C[C@H]2CN1C(=O)c1ccccc1`, the concentration at half-maximal activity (AC50) was 25.1 µM (inconclusive) on Cytochrome P450 2C19 and 31.6 µM (inconclusive) on Cytochrome P450 1A2. In the same order, the values of `CN(C)c1cc(=O)n2c(n1)SCCC2` are 28.2 µM (inconclusive) and 12.6 µM (inconclusive). `COc1ccc(-n2c(=O)c(CCc3ccccc3)nc3cncnc32)cc1`: the results for the AC50 at Cytochrome P450 1A2 and at Cytochrome P450 2C9 were 25.1 µM (inconclusive) and 20 µM (inconclusive), respectively.

As to `COc1ccccc1NC(=O)Nc1ncccc1C`, the AC50 in [8] was 0.903 µM (active). As to `CCC(C)c1ccc(NC(S)=NCCn2cc(Br)cn2)cc1` (stereo not given), the EC50 in [1], in [3] and in assay [2] was > 120 µM (not active) throughout. With `CCc1c(C)nc(Nc2nc(C)c3ccc(OC)cc3n2)nc1O`, in the assay on H9c2, the IC50 is > 79 µM (inactive). As for `Cc1cc(OCC(=O)N2CCOCC2)cc2oc(=O)c3ccccc3c12`, the IC50 in the assay on H9c2 was > 79 µM (inactive). As for `Cc1ccc2nc(NC(=O)[C@H](C)N3C(=O)C4CC=CCC4C3=O)sc2c1` (stereo not given in full), the EC50 in assay [1] is 0.556 µM (inconclusive); in assay [3], > 120 µM (not active).

`COc1ccc(C(=O)[C@H]2[C@H]3C(=O)N(c4ccccc4)C(=O)[C@H]3C3C=CC=NN32)cc1` (stereo not given in full): the EC50 in assay [1], in assay [3] and in assay [2] was > 120 µM (not active) in each case.

Turning to `CCOc1ccc(-n2ccnc2SCC(=O)Nc2nnc(CC)s2)cc1`, at Cytochrome P450 1A2, the AC50 was 20 µM (inconclusive). Consider `Cc1cccc2c(=O)cc(C)n(CC(N)=O)c12`, for which the CC50 in [4] was 24.6 µM (active).

Regarding `Cc1cc(C)nc(SCc2cccc(C(=O)O)c2)n1`, the EC50 in assay [1] was 17.5 µM (active); in [2] it was 28.8 µM (active). Regarding `C(=C\c1nnc2c3ccccc3ncn12)/c1ccccc1`, the EC50 in assay [3] is 7.36 µM (active).

With `CCCC(=O)NC(Nc1ccccc1F)C(Cl)(Cl)Cl` (stereo not given), the AC50 is 22.4 µM (inconclusive) at Cytochrome P450 1A2 and 14.1 µM (inconclusive) on Cytochrome P450 3A4. Turning to `Brc1ccc(CN2CCN(c3ccccc3)CC2)o1`, the AC50 in assay [8] was 2.03 µM (active).

As for `CN(C(=O)CSc1nc(O)c2c(n1)CCCC2)C1CCCCC1`, the IC50 in the assay on H9c2 was 33.3 µM (inactive). `CCN(CC(=O)Nc1ccc(OC)cc1)C(=O)c1cc(-c2cccs2)nn1-c1ccccc1`: the IC50 with H9c2 was 36.6 µM (inactive). In the case of `FC(F)(F)c1cccc(-c2ccn3ncnc3n2)c1`, the CC50 in assay [4] was 35.5 µM (active). `O=C(Nc1ccccc1)c1ccc(-c2ccc(Br)cc2)o1`: in assay [4], the CC50 is 16.9 µM (active). For `O=C(c1ccc(F)cc1)C1CCN(C(S)=Nc2ccccc2)CC1`, the AC50 is 7.08 µM (inconclusive) on Cytochrome P450 2C19, 14.1 µM (inconclusive) at Cytochrome P450 2D6 and 12.6 µM (inconclusive) on Cytochrome P450 1A2.

In the case of `C[C@@H]1CCCC(CC(=O)O)(CC(=O)O)C1`, the AC50 on Cytochrome P450 1A2 is 0.631 µM (inconclusive).

For the compound `COc1cc(-c2cc3nc(NCCc4ccc(S(N)(=O)=O)cc4)ccn3n2)cc(OC)c1OC`, the IC50 in the assay on H9c2 was > 79 µM (inactive). On to `CC(=O)OCc1nc(O)c2c(C)c(C)sc2n1`, for which the IC50 in the assay with H9c2 was > 79 µM (inactive). With `CN1CCN(/N=C/c2nc(-c3cccc([N+](=O)[O-])c3)n3ccccc23)CC1`, the EC50 in [5] is > 53 µM (inactive).

As to `Cc1cc(/C=N/NC(=O)c2c(Br)cnn2C)c(C)n1-c1cccc(Br)c1`, the CC50 in [4] is 41.5 µM (active). In the case of `C=CCOc1ccc(/C=N/NC(=O)c2cc3c(OC)cc(OC)cc3[nH]2)cc1`, in assay [4], the CC50 is 27.4 µM (active). Consider `Cc1ccc(/N=C2\C(Cl)=C(O)OC2OC(C)C)c(C)c1` (stereo not given), for which the EC50 in assay [1] was > 120 µM (not active); in assay [3], 24.8 µM (active); in [2] it was > 120 µM (not active). As for `O=c1[nH]nc(Cc2ccccc2)c2ccccc12`, the IC50 with H9c2 was > 79 µM (inactive). For the compound `N[C@@H](CCCP(=O)(O)O)C(=O)O`, the concentration at half-maximal activity (AC50) at Cytochrome P450 1A2 was 31.6 µM (inconclusive).
